Test results taken from patent publication US20070117784A1, “Treatment of hyperproliferative diseases with anthraquinones” (Novacea, Inc., priority 2005, published 2007).

Columns and labels:
[1] = tested on: P388; assay: MTS cytotoxicity assay, P388; conditions: Mus musculus, P388, 24 h
[2] = tested on: KB; assay: MTS cytotoxicity assay, KB; type: cell-based; conditions: Homo sapiens, normoxic, 24 h exposure
[3] = tested on: HT-29; assay: MTS cytotoxicity assay, HT-29; type: cell-based; conditions: normoxic, 24 h exposure
[4] = tested on: CCRF-CEM; assay: MTS cytotoxicity assay, CCRF-CEM; conditions: Homo sapiens, 24 h
[5] = tested on: MO59K cells (glioblastoma); assay: Colony formation assay, combination with temozolomide and radiation
[6] = tested on: B16-F10; assay: MTS cytotoxicity assay, B16-F10; type: cell-based, human; conditions: Mus musculus, normoxic, 24 h exposure
[7] = tested on: Raji; assay: MTS cytotoxicity assay, Raji; conditions: Homo sapiens, 24 h
[8] = tested on: ARH177; assay: MTS cytotoxicity assay, ARH177; conditions: 24 h
[9] = tested on: Namalwa; assay: MTS cytotoxicity assay, Namalwa; conditions: Homo sapiens, 24 h
[10] = tested on: K562; assay: MTS cytotoxicity assay, K562; conditions: Homo sapiens, K562, 24 h
[11] = tested on: HCT116; assay: MTS cytotoxicity assay, HCT116; type: cell-based; conditions: 24 h exposure
[12] = tested on: KB-3; assay: MTS cytotoxicity assay, KB-3; type: cell-based; conditions: KB3; KB-3 (radiation-resistant); normoxic; 24 h exposure
[13] = tested on: BXPC-3; assay: MTS cytotoxicity assay, BXPC-3; conditions: Homo sapiens, BXPC-3, 24 h
[14] = single 20 mg/kg dose of AQ4N; previous studies; cited from earlier work
[15] = tested on: U118MG; assay: MTS cytotoxicity assay, U118MG; type: cell-based; conditions: Homo sapiens, U-118-MG, normoxic, 24 h exposure
[16] = tested on: Ramos; assay: MTS cytotoxicity assay, Ramos; conditions: Homo sapiens, 24 h
[17] = mouse, in vivo
[18] = tested on: A375-SM; assay: MTS cytotoxicity assay, A375-SM; type: cell-based, mouse; conditions: Homo sapiens, normoxic, 24 h exposure
[19] = tested on: L1210; assay: MTS cytotoxicity assay, L1210; conditions: Mus musculus, L1210, 24 h
[20] = tested on: Hep3B2.1-7; assay: MTS cytotoxicity assay, Hep3B2.1-7; type: cell-based; conditions: normoxic, 24 h exposure
[21] = tested on: U87MG; assay: MTS cytotoxicity assay, U87MG; type: cell-based; conditions: Homo sapiens, U-87 MG, normoxic, 24 h exposure
[22] = tested on: FaDu; assay: MTS cytotoxicity assay, FaDu; type: cell-based; conditions: Homo sapiens, normoxic, 24 h exposure
[23] = tested on: LS174T; assay: MTS cytotoxicity assay, LS174T; type: cell-based; conditions: normoxic, 24 h exposure
[24] = tested on: Daudi; assay: MTS cytotoxicity assay, Daudi; conditions: Homo sapiens, 24 h
[25] = tested on: RPMI8226/Dox; assay: MTS cytotoxicity assay, RPMI8226/Dox; conditions: Homo sapiens, RPMI-8226, 24 h
[26] = tested on: L5178Y; assay: MTS cytotoxicity assay, L5178Y; conditions: Mus musculus, 24 h
[27] = tested on: U251; assay: MTS cytotoxicity assay, U251; type: cell-based; conditions: Homo sapiens, U-251, normoxic, 24 h exposure
[28] = tested on: MOLT-4; assay: MTS cytotoxicity assay, MOLT-4; conditions: Homo sapiens, MOLT-4, 24 h
[29] = tested on: HL-60; assay: MTS cytotoxicity assay, HL-60; conditions: Homo sapiens, HL-60, 24 h
[30] = tested on: RPMI8226; assay: MTS cytotoxicity assay, RPMI8226; conditions: Homo sapiens, RPMI-8226, 24 h
[31] = tested on: CCRF-CEM/VLB; assay: MTS cytotoxicity assay, CCRF-CEM/VLB; conditions: Homo sapiens, 24 h
[32] = tested on: KG1a; assay: MTS cytotoxicity assay, KG1a; conditions: Homo sapiens, KG-1a, 24 h
[33] = tested on: bladder cancer cell lines; conditions: previous data; cited from earlier work
[34] = tested on: Panc-1; assay: MTS cytotoxicity assay, Panc-1; conditions: Homo sapiens, PANC-1, 24 h
[35] = tested on: LoVo; assay: MTS cytotoxicity assay, LoVo; type: cell-based; conditions: normoxic, 24 h exposure
[36] = tested on: MiaPaCa; assay: MTS cytotoxicity assay, MiaPaCa; conditions: Homo sapiens, MIA PaCa-2, 24 h
[37] = tested on: human Panc-1 tumors; assay: sc Panc-1 pancreatic xenograft, tumor growth delay; type: in vivo, nude mice; conditions: Panc-1 sc, gemcitabine treatment
Procedure: Mice were actively sacrificed as a cancer death when their tumors reached 1200 mm^3. Shown are Kaplan-Meier plots summarizing the percentage of the animals remaining in the study as a function of time following tumor inoculation. Treatment outcome was determined from TGD, defined as the increase in median TTE in a treatment group as compared to the control group.
In each case, a range of AQ4N dose schedules were evaluated to determine the optimum dosage for efficacy as a single agent.
In the Panc-1 model, the endpoint of the study was pre-defined to be when tumors reached 1200 mm^3 and treatment outcome was determined from tumor growth delay (TGD). TGD is defined as the increase in median time to endpoint (TTE) in a treatment group as compared to the control group, and expressed in days or as a percentage of the median TTE vs. the control group.

[38] = tested on: human BxPC-3 pancreatic carcinoma; assay: sc BxPC-3 pancreatic xenograft, tumor growth inhibition; type: in vivo, nude mice; conditions: BxPC-3 sc
Procedure: Shown are the mean (±SEM) tumor volumes measured from treatment and control groups following tumor challenge. The study was terminated when tumors from the vehicle-treated group reached an average of approximately 2 grams (day 27) and the % TGI was calculated as defined in the text. […] Animals were actively sacrificed when they became moribund from excessive tumor burden.

[39] = tested on: BxPC-3 pancreatic carcinoma (orthotopic); assay: Orthotopic BxPC-3 pancreatic carcinoma model, survival; conditions: BxPC-3 ot; gemcitabine treatment; P=0.04

CN(C)CCNc1ccc(NCCN(C)C)c2c1C(=O)c1c(O)ccc(O)c1C2=O [AQ4, 1,4-bis{[2-(dimethylamino)ethyl]amino}-5,8-dihydroxyanthracene-9,10-dione] gave an IC50 [1] of 0.01 µM, an IC50 [2] of 0.6 µM and an IC50 ([3]; Homo sapiens) of 0.7 µM. For the same compound, the IC50 [4] was 0.62 µM, the “combined cytotoxic effect with temozolomide and radiation” value ([5]; 48 hr combined treatment, 1.5 Gy at 24 hr, FIG. 24) was “additive and synergistic cytotoxic effects” and the “combined cytotoxic effect with temozolomide” value ([5]; 48 hr temozolomide, 10-day colony formation, FIG. 23) was “additive and synergistic cytotoxic effects”. It also gave an IC50 [6] of 0.02 µM, an IC50 [7] of 0.2 µM and an IC50 [8] of 0.2 µM. The IC50 [9] was 0.0002 µM, the IC50 [10] was 0.4 µM and the IC50 ([11]; Homo sapiens, HCT-116, normoxic) was 3.9 µM. The IC50 [12] was 3.3 µM, the IC50 [13] was 1.6 µM and the “time AQ4 can be detected in tumor tissues” value [14] was “at least 2 weeks”. For the same compound, the IC50 [15] was 1.3 µM, the IC50 [16] was 0.008 µM and the “tumor accumulation vs dose” value ([17]; 240 mg/kg) was “dose-dependent fashion”. For the same compound, the “percent of near maximal tumor levels after 2 hr post-infusion” value ([17]; 2 h) was 55-85%, the “percent of conversion occurring by 8 hr” value ([17]; 8 h) was 80-100% and the IC50 [18] was 3.3 µM. For the same compound, the IC50 [19] was 0.0012 µM, the IC50 [20] was 0.8 µM and the IC50 [21] was 0.9 µM. The IC50 [22] was 0.3 µM, the IC50 ([23]; Homo sapiens) was 0.95 µM and the IC50 [24] was 0.0046 µM. It also gave an IC50 [25] of 1.1 µM, an IC50 [26] of 0.03 µM and an IC50 [27] of 0.6 µM. For the same compound, the IC50 [28] was 0.002 µM, the IC50 [29] was 0.01 µM and the IC50 [30] was 0.2 µM. The IC50 [31] was 0.34 µM, the IC50 [32] was 0.05 µM and the interaction with radiation [33] was “additive interactions”. It also gave an IC50 [34] of 0.4 µM, an IC50 ([35]; Homo sapiens) of 0.21 µM and an IC50 [36] of 1.6 µM.
Work on CCC1=C[C@@H]2CN(C1)Cc1c([nH]c3ccccc13)[C@@](C(=O)OC)(c1cc3c(cc1OC)N(C)[C@H]1[C@@](O)(C(=O)OC)[C@H](OC(C)=O)[C@]4(CC)C=CCN5CC[C@]31[C@@H]54)C2 [VLB, vinorelbine, reference compound] yielded an IC50 [4] of 0.01 µM and an IC50 [31] of 1040 µM.
Work on COc1cccc2c1C(=O)c1c(O)c3c(c(O)c1C2=O)C[C@@](O)(C(=O)CO)C[C@@H]3O[C@H]1C[C@H](N)[C@H](O)[C@H](C)O1 [Dox, doxorubicin, reference compound] yielded an IC50 [1] of 0.1 µM, an IC50 [7] of 0.0009 µM and an IC50 [9] of 0.0074 µM. The IC50 [15] was 0.03 µM, the IC50 [16] was 0.0018 µM and the IC50 [19] was 0.05 µM. It also gave an IC50 [21] of 0.4 µM, an IC50 [24] of 0.0005 µM and an IC50 [25] of 54.7 µM. It also gave an IC50 [26] of 0.05 µM, an IC50 [27] of 0.03 µM and an IC50 [28] of 0.0075 µM. For the same compound, the IC50 [29] was 0.1 µM, the IC50 [30] was 0.1 µM and the IC50 [32] was 0.6 µM.
In the case of CN(C)CCNc1ccc(NCC[N+](C)(C)[O-])c2c1C(=O)c1c(O)ccc(O)c1C2=O [AQ4M], the “plasma level at 2 hr” value (240 mg/kg AQ4N dose) is reported as “only trace amounts”, the “metabolite detection in plasma” value (any AQ4N dose or time point) is reported as “undetectable” and the “tumor level by 8 h” value [17] is reported as “minimal levels by 8 h for most doses”. The “tumor level vs dose at 2 hr” value [17] was “approximately linear with increasing dose”.
For Nc1ccn([C@@H]2O[C@H](CO)[C@@H](O)C2(F)F)c(=O)n1 [gemcitabine], the “TGD as percentage of median TTE vs control” value [37] was 19%, the TTE ([37]; endpoint 1200 mm^3) was 34.2 days and the “TGD (tumor growth delay)” value ([37]; non-significant) was 5.4 days. For the same compound, the TGI ([38]; gemcitabine treatment, ~day 27) was 51%, the “TGI in comparison to vehicle-treated groups” value ([38]; single-agent, p<0.001, FIG. 20A) was “significant TGI” and the IC50 [13] was 0.0595 µM. For the same compound, the median survival [39] was 40 days, the IC50 [34] was 1.7 µM and the IC50 [36] was 0.023 µM.
CCc1c2c(nc3ccc(O)cc13)-c1cc3c(c(=O)n1C2)COC(=O)[C@]3(O)CC [SN38, 7-ethyl-10-hydro-camptothecin, reference compound] showed an IC50 [3] of 0.0651 µM, an IC50 ([11]; normoxic) of 0.0484 µM and an IC50 [23] of 0.0026 µM. The IC50 [35] was 0.0006 µM.
In the case of CC(=O)O[C@H]1C(=O)[C@@]2(C)[C@H]([C@H](OC(=O)c3ccccc3)[C@]3(O)C[C@H](OC(=O)[C@H](O)[C@@H](NC(=O)c4ccccc4)c4ccccc4)C(C)=C1C3(C)C)[C@]1(OC(C)=O)CO[C@@H]1C[C@@H]2O [Taxol, reference compound], the IC50 [2] is reported as 2 µM, the IC50 [12] is reported as 19.1 µM and the IC50 [20] is reported as 13.7 µM. It also gave an IC50 [22] of 6.5 µM.
